Tests used:
Histone deacetylase 8 = target: T1, Histone deacetylase 8 (Homo sapiens, UniProt Q9BY41); experiment: Inhibition of human recombinant HDAC8 using Boc-Lys-(Tfa)-AMC as substrate preincubated for 5 mins followed by substrate addition and measured after 90 mins by fluorescence based microplate reader analysis
T1 sequence (Q9BY41 whole entry): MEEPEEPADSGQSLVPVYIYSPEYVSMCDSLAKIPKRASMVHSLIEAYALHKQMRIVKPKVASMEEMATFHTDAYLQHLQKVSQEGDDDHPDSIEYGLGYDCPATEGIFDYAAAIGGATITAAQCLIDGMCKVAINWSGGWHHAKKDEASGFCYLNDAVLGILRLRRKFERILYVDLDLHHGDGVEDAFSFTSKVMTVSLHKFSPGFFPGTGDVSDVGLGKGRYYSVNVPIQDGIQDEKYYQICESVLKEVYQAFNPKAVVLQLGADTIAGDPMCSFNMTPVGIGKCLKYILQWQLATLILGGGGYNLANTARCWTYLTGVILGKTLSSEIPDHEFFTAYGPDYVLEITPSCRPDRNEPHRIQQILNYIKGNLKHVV

Histone deacetylase 2 = Histone deacetylase 2 (Homo sapiens, UniProt Q92769); experiment: Inhibition of human recombinant HDAC2 using Boc-Lys(Ac)-AMC as substrate preincubated for 5 mins followed by substrate addition and measured after 90 mins by fluorescence based microplate reader analysis
Histone deacetylase 2, sequence (Q92769 whole entry): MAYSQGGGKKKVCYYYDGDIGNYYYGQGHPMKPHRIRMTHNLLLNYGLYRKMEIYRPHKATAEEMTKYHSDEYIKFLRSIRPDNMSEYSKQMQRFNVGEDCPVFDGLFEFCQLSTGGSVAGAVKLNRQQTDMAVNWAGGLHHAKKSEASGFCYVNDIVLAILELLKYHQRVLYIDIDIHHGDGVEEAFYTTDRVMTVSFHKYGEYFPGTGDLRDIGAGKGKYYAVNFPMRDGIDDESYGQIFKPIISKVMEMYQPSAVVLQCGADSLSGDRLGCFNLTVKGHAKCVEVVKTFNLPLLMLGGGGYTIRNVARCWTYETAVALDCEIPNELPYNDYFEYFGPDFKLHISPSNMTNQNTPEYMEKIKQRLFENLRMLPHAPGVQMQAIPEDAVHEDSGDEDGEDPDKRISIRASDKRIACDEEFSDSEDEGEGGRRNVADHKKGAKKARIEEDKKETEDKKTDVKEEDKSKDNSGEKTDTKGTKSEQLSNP

THP-1 = experiment: Inhibition of Class I/IIb HDAC in human THP-1 cells at 100 uM preincubated for 18 hrs followed by substrate addition and measured after 3 hrs by fluorescence based microplate reader assay relative to control; type: cell-based; conditions: time 21.0 hrs
Histone deacetylase 3 = Histone deacetylase 3 (Homo sapiens, UniProt O15379); experiment: Inhibition of HDAC3 (unknown origin)
Histone deacetylase 3, sequence (O15379 whole entry): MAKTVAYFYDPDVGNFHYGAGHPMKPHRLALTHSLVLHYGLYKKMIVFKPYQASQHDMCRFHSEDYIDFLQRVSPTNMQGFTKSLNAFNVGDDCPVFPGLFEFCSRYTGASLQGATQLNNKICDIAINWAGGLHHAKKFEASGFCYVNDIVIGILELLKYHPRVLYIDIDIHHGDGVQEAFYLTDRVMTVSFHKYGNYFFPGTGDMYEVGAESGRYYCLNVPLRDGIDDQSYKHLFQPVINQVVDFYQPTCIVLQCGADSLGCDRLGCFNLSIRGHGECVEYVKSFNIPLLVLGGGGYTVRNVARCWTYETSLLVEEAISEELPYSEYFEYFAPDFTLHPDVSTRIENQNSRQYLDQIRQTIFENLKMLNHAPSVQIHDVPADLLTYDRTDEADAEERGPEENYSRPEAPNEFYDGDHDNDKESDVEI

Histone deacetylase 11 = target: T2, Histone deacetylase 11 (Homo sapiens, UniProt Q96DB2); experiment: Inhibition of HDAC11 (unknown origin)
T2 sequence (Q96DB2 whole entry): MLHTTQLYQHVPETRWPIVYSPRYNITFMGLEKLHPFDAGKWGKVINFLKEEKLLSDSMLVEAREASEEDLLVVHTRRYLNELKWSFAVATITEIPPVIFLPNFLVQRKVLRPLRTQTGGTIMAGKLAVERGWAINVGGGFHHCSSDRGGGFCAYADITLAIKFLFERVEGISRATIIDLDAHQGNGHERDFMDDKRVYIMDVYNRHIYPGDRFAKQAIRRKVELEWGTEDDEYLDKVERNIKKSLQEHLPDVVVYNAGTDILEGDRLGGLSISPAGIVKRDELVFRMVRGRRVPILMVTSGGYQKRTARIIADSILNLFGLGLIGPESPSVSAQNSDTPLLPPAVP

Histone deacetylase 1 = Histone deacetylase 1 (Homo sapiens, UniProt Q13547); experiment: Inhibition of HDAC1 (unknown origin)
Histone deacetylase 1, sequence (Q13547 whole entry): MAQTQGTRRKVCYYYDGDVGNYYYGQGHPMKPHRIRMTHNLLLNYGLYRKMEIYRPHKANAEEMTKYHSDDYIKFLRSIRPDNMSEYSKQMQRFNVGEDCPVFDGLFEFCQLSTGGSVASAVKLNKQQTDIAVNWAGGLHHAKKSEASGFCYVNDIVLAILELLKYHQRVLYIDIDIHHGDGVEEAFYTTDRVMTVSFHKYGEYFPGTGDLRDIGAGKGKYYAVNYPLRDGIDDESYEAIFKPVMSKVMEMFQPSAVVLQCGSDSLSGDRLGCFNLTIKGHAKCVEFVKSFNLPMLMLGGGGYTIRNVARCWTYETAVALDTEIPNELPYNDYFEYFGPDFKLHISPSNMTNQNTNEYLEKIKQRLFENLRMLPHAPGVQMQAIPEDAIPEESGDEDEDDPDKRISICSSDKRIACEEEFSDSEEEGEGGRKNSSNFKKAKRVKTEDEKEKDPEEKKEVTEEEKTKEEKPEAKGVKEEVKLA

O=C(NOCc1coc(-c2ccccc2)n1)c1ccc(-c2noc(C(F)(F)F)n2)cc1
IC50 (Histone deacetylase 8): > 100 µM | IC50 (Histone deacetylase 2): > 100 µM | inhibition (THP-1): 0% | IC50 (Histone deacetylase 3): > 100 µM | IC50 (Histone deacetylase 11): > 100 µM | IC50 (Histone deacetylase 1): > 100 µM

— ChEMBL document CHEMBL5537119 (Eur J Med Chem, 2024)
